Here are results for one molecule from article PMC8820820, “Feasibility and safety of targeting mitochondria for cancer therapy – preclinical characterization of gamitrinib, a first-in-class, mitochondriaL-targeted small molecule Hsp90 inhibitor” (Cancer Biology & Therapy, 2022).

Read-outs that look alike come from different tables or passages of the source.

On the set-up of the series: species or system beagle dogs. The note with it: dog, in vivo. The method, then: Eighteen male and female (5–6 mo old) purebred beagle dogs (Cumberland, VA) were acclimated for 47 d (20°C to 26°C, relative humidity 30–70%, 10 or greater air changes/h, and a 12-h light/dark cycle) prior to study initiation. Animals were given water ad libitum and Certified Canine Diet #5007 (PMI Nutrition International Certified LabDiet®) for 4 to 5 h each day. At study initiation, animal body weights ranged from 8.6 to 11.5 kg for males and 6.0 to 9.4 kg for females. At least 1 week prior to initiation of dosing, animals were fasted overnight, anesthetized, and a catheter attached to a subcutaneous vascular access port was surgically implanted into a jugular vein. Animals were acclimated to infusion jackets prior to catheter implantation surgery. Animals were infused with sterile saline at a dose rate of 5 mL/h when the vascular access ports were accessed and when animals were connected to the infusion system (except when dosed with the test or vehicle control article). The patency of each catheter was checked as needed. Prednisolone tablets were administered orally at 2 mg/kg the night prior to dosing. Diphenhydramine (5 mg/kg; IM injection 0.1 mL/kg, 50 mg/mL) was administered prior to dosing and post the start of infusion (d 1 only). Male and female dogs received dose levels of Gamitrinib of 1.25, 3.33 and 6.25 mg/kg/dose formulated as indicated above during a 1 h infusion on d 1, 8, 11, 15, 18, 22, 25, 29, 32, and 36 at a volume of 2 mL/kg. The vehicle control was as above. […] Dosing was stopped, and 23 of 24 animals were administered additional diphenhydramine, 11 were administered Flunixin meglumine and buprenorphine, and 6 were administered acepromazine. Symptoms subsided in all animals after completion of these interventions. As a result of these observations, the polysorbate levels, which were increased from 0.025% (w/v) to 0.125% (w/v) to minimize precipitation, were returned to the original concentrations; 2 mg/kg prednisone was administered orally the night prior to dosing; and the diphenhydramine pretreatment dose was updated to 5 mg/kg 15 to 30 min prior to dosing. Detailed observations were conducted for each animal up to seven times during the predose phase, prior to dosing on d 1, 8, 15, 22, 29, and 36 of the dosing phase, and on d 1, 7, and 14 of the recovery phase. Blood samples (1 mL) were collected via the cephalic vein 5, 15, and 30 min and 1, 4, 8, and 24 h post the end of infusion on d 8 and 36 of the dosing phase. Formalin-fixed and paraffin-embedded tissue samples collected at the end of the study (d 39) were processed for histologic examination.

Broadly, the Cmax is the peak of the concentration-time curve. In the case of `COC1C=CC=C(C)C(=O)NC2=CC(=O)C(NCCCCCC[P+](c3ccccc3)(c3ccccc3)c3ccccc3)=C(CC(C)CC(OC)C(O)C(C)C=C(C)C1OC(N)=O)C2=O.F[P-](F)(F)(F)(F)F` (stereo not shown) [Gamitrinib], under “3.33 mg/kg”, the “AUC0–24” value stood at 1740 ± 713 ng·h/mL and the Cmax worked out at 560 ± 404 ng/mL. For the same molecule, for the setting “6.25 mg/kg”, the “AUC0–24” value came to 3290 ± 1090 ng·h/mL and the Cmax turned out to be 1260 ± 556 ng/mL.
